Assay results from paper PMC5278949 (The Journal of organic chemistry, 2016).
pIC50: −log10 of the molar value.

molecular target: kappa opioid receptor (KOR) (Homo sapiens, UniProt P41145); assay: GTPγS assay, antagonism of U69, […], concentration-response; type: biochemical
Sequence (P41145 whole entry): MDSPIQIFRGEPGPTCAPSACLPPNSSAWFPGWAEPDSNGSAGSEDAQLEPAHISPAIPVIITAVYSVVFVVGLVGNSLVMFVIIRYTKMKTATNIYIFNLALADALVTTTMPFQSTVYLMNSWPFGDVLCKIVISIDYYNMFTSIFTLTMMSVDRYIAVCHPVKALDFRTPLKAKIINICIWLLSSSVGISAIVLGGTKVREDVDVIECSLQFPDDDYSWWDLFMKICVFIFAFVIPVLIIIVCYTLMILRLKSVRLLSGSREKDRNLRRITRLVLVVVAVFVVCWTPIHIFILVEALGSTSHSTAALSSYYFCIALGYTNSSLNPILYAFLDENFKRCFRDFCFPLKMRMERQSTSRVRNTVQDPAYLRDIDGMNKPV

pIC50	SMILES
6.04	COc1ccc(N2CCN(CCCNC(=O)CN3C(=O)C4CCCCN4c4cc(C)cnc43)CC2)cc1 (racemic) [compound 28, N-(3-(4-(4-Methoxyphenyl)piperazin-1-yl)propyl)-2-(2-methyl-6-oxo-6,6a,7,8,9,10-hexahydro-5H-dipyrido[1,2-a:2′,3′-e]pyrazin-5-yl)acetamide]
5.55	COc1ccc(N2CCN(CCCNC(=O)CN3C(=O)[C@@H]4CCCN4c4c(C)ccnc43)CC2)cc1 [compound 26, (S)-N-(3-(4-(4-Methoxyphenyl)piperazin-1-yl)propyl)-2-(1-methyl-6-oxo-6a,7,8,9-tetrahydropyrido[2,3-e]pyrrolo[1,2-a]pyrazin-5(6H)-yl)acetamide]
5.58	COc1ccc(N2CCN(CCCNC(=O)CN3C(=O)[C@@H]4CCCN4c4cc(C)cnc43)CC2)cc1 [compound 27, (S)-N-(3-(4-(4-Methoxyphenyl)piperazin-1-yl)propyl)-2-(2-methyl-6-oxo-6a,7,8,9-tetrahydropyrido[2,3-e]pyrrolo[1,2-a]pyrazin-5(6H)-yl)acetamide]
6.36	COc1ccc(N2CCN(CCCNC(=O)CN3C(=O)[C@H](CC(C)C)Nc4cc(C)cnc43)CC2)cc1 [compound 29, (S)-2-(2-Isobutyl-7-methyl-3-oxo-2,3-dihydropyrido[2,3-b]-pyrazin-4(1H)-yl)-N-(3-(4-(4-methoxyphenyl)piperazin-1-yl)propyl)-acetamide]
